Source: patent publication US11739070B2, “C5A receptor modulators” (IDORSIA PHARMACEUTICALS LTD, priority 2018, dated 2023)

Target: T1, C5AR1 (Homo sapiens, UniProt P21730)
T1 construct: host or cells: CHO-K1
T1 sequence (P21730 1-350): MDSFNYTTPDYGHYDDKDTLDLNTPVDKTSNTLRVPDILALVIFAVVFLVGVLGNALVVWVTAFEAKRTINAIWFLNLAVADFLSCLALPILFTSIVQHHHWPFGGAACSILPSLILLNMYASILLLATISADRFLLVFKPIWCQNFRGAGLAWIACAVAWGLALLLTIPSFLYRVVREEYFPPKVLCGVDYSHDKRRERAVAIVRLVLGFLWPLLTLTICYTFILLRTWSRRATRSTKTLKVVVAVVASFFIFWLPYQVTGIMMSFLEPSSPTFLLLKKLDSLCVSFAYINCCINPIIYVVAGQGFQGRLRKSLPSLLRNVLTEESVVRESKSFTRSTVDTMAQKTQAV
Assay: hC5a DISCO IC50 assay (PathHunter beta-arrestin, antagonist mode)
Type: cell-based
Conditions: CHO-K1 C5AR1 beta-arrestin cell line; antagonist vs 1-10 nM C5a agonist; geometric mean values; read-out: C5aR IC50
Method: II. Biological Assays In Vitro Assay hC5a DISCO IC50 Assay
5 μl Antagonist at 6-fold end concentration or DMSO control is added to assay medium and subsequently 5 μl 1-10 nM C5a agonist at 6 fold end concentration. Cells are centrifuged for 1 min at 1000 rpm and incubated for 1.5 hour in at 37° C. Plates are equilibrated at room temperature for several minutes before adding 12 μl/well Detection Reagent (PathHunter Detection Kit, DiscoverX, Cat #93-0001). Plates are centrifuged for 1 min at 1000 rpm and incubated for 45 minutes at RT before being measured on a Fluostar Optima, BMG Labtech. IC50 values are calculated from a serial dilution range of antagonist using inhouse software and given in nmol/l.
The calculated IC50 values may fluctuate depending on the daily cellular assay performance. Fluctuations of this kind are known to those skilled in the art. Average IC50 values from several measurements are given as geometric mean values.

Going from `COc1ccnc2c1n(Cc1ccccc1C(F)(F)F)c(=O)n2[C@@H]1CCN(c2c(C)cccc2C)C1` [Example 45, 3-[(R)-1-(2,6-Dimethyl-phenyl)-pyrrolidin-3-yl]-7-methoxy-1-(2-trifluoromethyl-benzyl)-1,3-dihydro-imidazo[4,5-b]pyridin-2-one] to `COc1ccnc2c1n(Cc1ccccc1C(F)(F)F)c(=O)n2[C@@H]1CCN(c2c(F)cccc2F)C1` [Example 46, 3-[(R)-1-(2,6-Difluoro-phenyl)-pyrrolidin-3-yl]-7-methoxy-1-(2-trifluoromethyl-benzyl)-1,3-dihydro-imidazo[4,5-b]pyridin-2-one], the IC50 rises from 16 nM to 39 nM (2.4-fold).

Going from `COc1nccc(C)c1N1CC[C@@H](n2c(=O)n(Cc3ccccc3C(F)(F)F)c3c(OC)nccc32)C1` [Example 47, 4-Methoxy-1-[(R)-1-(2-methoxy-4-methyl-pyridin-3-yl)-pyrrolidin-3-yl]-3-(2-trifluoromethyl-benzyl)-1,3-dihydro-imidazo[4,5-c]pyridin-2-one] to `COc1nccc2c1n(Cc1ccccc1C(F)(F)F)c(=O)n2[C@@H]1CCN(c2c(C)ccnc2F)C1` [Example 48, 1-[(R)-1-(2-Fluoro-4-methyl-pyridin-3-yl)-pyrrolidin-3-yl]-4-methoxy-3-(2-trifluoromethyl-benzyl)-1,3-dihydro-imidazo[4,5-c]pyridin-2-one], the IC50 rises from 95 nM to 165 nM (1.7-fold). The first is the more potent here.

Compared with `COc1cccc(F)c1N1CC[C@@H](n2c(=O)n(Cc3ccccc3C(F)(F)F)c3c(OC)nccc32)C1` [Example 49, 1-[(R)-1-(2-Fluoro-6-methoxy-phenyl)-pyrrolidin-3-yl]-4-methoxy-3-(2-trifluoromethyl-benzyl)-1,3-dihydro-imidazo[4,5-c]pyridin-2-one], `COc1cccc(C)c1N1CC[C@@H](n2c(=O)n(Cc3ccccc3C(F)(F)F)c3c(OC)nccc32)C1` [Example 51, 4-Methoxy-1-[(R)-1-(2-methoxy-6-methyl-phenyl)-pyrrolidin-3-yl]-3-(2-trifluoromethyl-benzyl)-1,3-dihydro-imidazo[4,5-c]pyridin-2-one] is 2.1-fold lower in IC50: 132 nM for the first, 62 nM for the second. The second is the more potent here.

Going from `COc1nccc2c1n(Cc1ccccc1C(F)(F)F)c(=O)n2[C@@H]1CCN(c2c(C)cccc2F)C1` [Example 50, 1-[(R)-1-(2-Fluoro-6-methyl-phenyl)-pyrrolidin-3-yl]-4-methoxy-3-(2-trifluoromethyl-benzyl)-1,3-dihydro-imidazo[4,5-c]pyridin-2-one] to `Cc1cccc(F)c1N1CC[C@@H](n2c(=O)n(Cc3ccccc3C(F)(F)F)c3c(=O)[nH]ccc32)C1` [Example 57, 1-[(R)-1-(2-Fluoro-6-methyl-phenyl)-pyrrolidin-3-yl]-3-(2-trifluoromethyl-benzyl)-3,5-dihydro-1H-imidazo[4,5-c]pyridine-2,4-dione], the IC50 rises from 42 nM to 89 nM (2.1-fold). The first is the more potent here.

Going from `Cc1cccc(C)c1N1CC[C@@H](n2c(=O)n(Cc3ccccc3C(F)(F)F)c3c(OCCO)cccc32)C1` [Example 52, 1-[(R)-1-(2,6-Dimethyl-phenyl)-pyrrolidin-3-yl]-4-(2-hydroxy-ethoxy)-3-(2-trifluoromethyl-benzyl)-1,3-dihydro-benzoimidazol-2-one] to `COc1cccc2c1n(Cc1ccccc1C(F)(F)F)c(=O)n2[C@@H]1CCN(c2c(C)ccnc2C)C1` [Example 66, 1-[(R)-1-(2,4-Dimethyl-pyridin-3-yl)-pyrrolidin-3-yl]-4-methoxy-3-(2-trifluoromethyl-benzyl)-1,3-dihydro-benzoimidazol-2-one], the IC50 rises from 30 nM to 60 nM (2-fold). The first is the more potent here.

Compared with `COc1cccc2c1n(Cc1cnccc1C(F)(F)F)c(=O)n2C1CCN(C(=O)OC(C)(C)C)CC1` [Example 53, 4-[4-Methoxy-2-oxo-3-(4-trifluoromethyl-pyridin-3-ylmethyl)-2,3-dihydro-benzoimidazol-1-yl]-piperidine-1-carboxylic acid tert-butyl ester], `COc1cccc2c1n(Cc1ncccc1C(F)(F)F)c(=O)n2C1CCN(C(=O)OC(C)(C)C)CC1` [Example 64, 4-[4-Methoxy-2-oxo-3-(3-trifluoromethyl-pyridin-2-ylmethyl)-2,3-dihydro-benzoimidazol-1-yl]-piperidine-1-carboxylic acid tert-butyl ester] is 1.6-fold higher in IC50: 1840 nM for the first, 2920 nM for the second. The first is the more potent here.

Compared with `COc1cccc2c1n(Cc1cccnc1C(F)(F)F)c(=O)n2C1CCN(c2c(C)cccc2C)CC1` [Example 54, 1-[1-(2,6-Dimethyl-phenyl)-piperidin-4-yl]-4-methoxy-3-(2-trifluoromethyl-pyridin-3-ylmethyl)-1,3-dihydro-benzoimidazol-2-one], `COc1cccc2c1n(Cc1cnccc1C(F)(F)F)c(=O)n2C1CCN(c2c(C)cccc2C)CC1` [Example 58, 1-[1-(2,6-Dimethyl-phenyl)-piperidin-4-yl]-4-methoxy-3-(4-trifluoromethyl-pyridin-3-ylmethyl)-1,3-dihydro-benzoimidazol-2-one] is 1.7-fold lower in IC50: 43 nM for the first, 25 nM for the second.

Compared with `COc1cccc2c1n(Cc1cccnc1C(F)(F)F)c(=O)n2C1CCN(c2c(F)cccc2F)CC1` [Example 55, 1-[1-(2,6-Difluoro-phenyl)-piperidin-4-yl]-4-methoxy-3-(2-trifluoromethyl-pyridin-3-ylmethyl)-1,3-dihydro-benzoimidazol-2-one], `COc1cccc2c1n(Cc1cnccc1C(F)(F)F)c(=O)n2C1CCN(c2c(F)cccc2F)CC1` [Example 59, 1-[1-(2,6-Difluoro-phenyl)-piperidin-4-yl]-4-methoxy-3-(4-trifluoromethyl-pyridin-3-ylmethyl)-1,3-dihydro-benzoimidazol-2-one] is 3.6-fold lower in IC50: 178 nM for the first, 49 nM for the second.

First: COc1cccc(F)c1N1CC[C@@H](n2c(=O)n(Cc3ccccc3C(F)(F)F)c3c(=O)[nH]ccc32)C1 [Example 56, 1-[(R)-1-(2-Fluoro-6-methoxy-phenyl)-pyrrolidin-3-yl]-3-(2-trifluoromethyl-benzyl)-3,5-dihydro-1H-imidazo[4,5-c]pyridine-2,4-dione]
Second: CCOC(=O)N1CC[C@@H](n2c(=O)n(Cc3ccccc3C(F)(F)F)c3c(OC)cccc32)C1 [Example 60, (R)-3-[4-Methoxy-2-oxo-3-(2-trifluoromethyl-benzyl)-2,3-dihydro-benzoimidazol-1-yl]-pyrrolidine-1-carboxylic acid ethyl ester]
The IC50 of the first is 8.5-fold higher: 717 nM for the first, 84 nM for the second. The second is the more potent here.

Compared with `COc1cccc2c1n(Cc1ccccc1C(F)(F)F)c(=O)n2[C@@H]1CCN(C(=O)OC(C)C)C1` [Example 61, (R)-3-[4-Methoxy-2-oxo-3-(2-trifluoromethyl-benzyl)-2,3-dihydro-benzoimidazol-1-yl]-pyrrolidine-1-carboxylic acid isopropyl ester], `CCCCOC(=O)N1CC[C@@H](n2c(=O)n(Cc3ccccc3C(F)(F)F)c3c(OC)cccc32)C1` [Example 62, (R)-3-[4-Methoxy-2-oxo-3-(2-trifluoromethyl-benzyl)-2,3-dihydro-benzoimidazol-1-yl]-pyrrolidine-1-carboxylic acid butyl ester] is 1.5-fold higher in IC50: 65 nM for the first, 99 nM for the second. The first is the more potent here.

Going from `COc1cccc2c1n(Cc1ccccc1C(F)(F)F)c(=O)n2[C@@H]1CCN(C(=O)Oc2ccccc2)C1` [Example 63, (R)-3-[4-Methoxy-2-oxo-3-(2-trifluoromethyl-benzyl)-2,3-dihydro-benzoimidazol-1-yl]-pyrrolidine-1-carboxylic acid phenyl ester] to `COc1ccccc1Cn1c(=O)n([C@@H]2CCN(C(=O)OC(C)(C)C)C2)c2cccc(OC)c21` [Example 65, (R)-3-[4-Methoxy-3-(2-methoxy-benzyl)-2-oxo-2,3-dihydro-benzoimidazol-1-yl]-pyrrolidine-1-carboxylic acid tert-butyl ester], the IC50 falls from 729 nM to 396 nM (1.8-fold).
